Data as given in paper PMC2825241, “Uptake of purines in Plasmodium falciparum-infected human erythrocytes is mostly mediated by the human Equilibrative Nucleoside Transporter and the human Facilitative Nucleobase Transporter” (2010).

Target: T1, human equilibrative nucleoside transporter (hENT1) (Homo sapiens, UniProt Q99808)
T1 construct: gene SLC29A1; endogenous transporter in intact human erythrocytes
T1 sequence (Q99808 2-456): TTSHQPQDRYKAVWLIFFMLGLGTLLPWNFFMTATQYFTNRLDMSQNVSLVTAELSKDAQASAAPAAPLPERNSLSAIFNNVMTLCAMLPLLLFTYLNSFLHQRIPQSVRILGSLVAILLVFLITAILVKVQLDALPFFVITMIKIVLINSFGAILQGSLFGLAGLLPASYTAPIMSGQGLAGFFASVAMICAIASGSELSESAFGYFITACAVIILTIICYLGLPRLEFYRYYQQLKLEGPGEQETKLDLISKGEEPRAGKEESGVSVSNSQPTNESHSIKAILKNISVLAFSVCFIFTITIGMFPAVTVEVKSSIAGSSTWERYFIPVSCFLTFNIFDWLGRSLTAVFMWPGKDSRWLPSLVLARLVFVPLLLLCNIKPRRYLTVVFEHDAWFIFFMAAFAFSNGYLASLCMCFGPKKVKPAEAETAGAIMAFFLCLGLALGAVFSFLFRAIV
Test: saturable [3H]-uridine uptake into uninfected human erythrocytes (Km)
Format: cell-based

Q: With O=c1ccn([C@@H]2O[C@H](CO)[C@@H](O)[C@H]2O)c(=O)[nH]1 [uridine] as the compound, how does the Km read?
A: The Km was 177 ± 30 µM.
